The source of these data is patent US7056903B2, “Carboxylic acid derivatives as IP antagonists” (Syntex (U.S.A.) LLC, priority 2000, dated 2006).

Where a name gives a salt, the structure may show the parent alone.

One may read the melting point as the temperature of the solid-liquid transition.

On to `O=C(N[C@H](Cc1ccccc1)C(=O)O)OCc1ccc(COc2cccc3ncccc23)cc1` [Compound 152, (R)-3-phenyl-2-[4-(quinolin-5-yloxymethyl)-benzyloxycarbonylamino]-propionic acid], for which the melting point was in the range of 189.4 to 189.8 °C. The figure for `O=C(NC(Cc1ccccc1)C(=O)O)OCc1cc2cc(-c3cncnc3)ccc2o1` (stereo not drawn) [Compound 175, 3-phenyl-2-(5-pyrimidin-5-yl-benzofuran-2-ylmethoxycarbonylamino)-propionic acid] is 192 to 192.5 °C. The figure for `O=C(N[C@H](Cc1ccc(F)cc1)C(=O)O)OCc1ccc2oc(-c3cc(F)cc(F)c3)nc2c1` [Compound 160, (R)-2-[2-(3,5-difluoro-phenyl)-benzoxazol-5-ylmethoxycarbonylamino]-3-(4-fluoro-phenyl)-propionic acid] is 196.2 to 197.7 °C. For the compound `O=C(N[C@H](Cc1ccccc1)C(=O)O)OCc1cc2cc(-c3ccccc3)ccc2o1` [Compound 19, (R)-2-(5-Phenyl-benzofuran-2-ylmethoxycarbonylamino)-3-phenyl-propionic acid], the melting point was 154 to 156 °C. The compound `O=C(N[C@H](Cc1ccc(F)cc1)C(=O)O)OCc1cc2cc(-c3cc(F)ccc3F)ccc2o1` [Compound 121, (R)-2-[5-(2,5-difluoro-phenyl)-benzofuran-2-ylmethoxycarbonylamino]-3-(4-fluoro-phenyl)-propionic acid] registered a melting point of 98 to 101 °C. The figure for `N#Cc1cccc(-c2ccc3oc(COC(=O)N[C@H](Cc4ccccc4)C(=O)O)cc3c2)c1` (hydrate or solvate) [Compound 96, (R)-2-[5-(3-cyano-phenyl)-benzofuran-2-ylmethoxycarbonylamino]-3-phenyl-propionic acid] is 64 to 68.5 °C. The figure for `O=C(N[C@H](Cc1ccccc1)C(=O)O)OCc1ccc(Cn2ccc3ccccc32)cc1` [Compound 153, (R)-2-(4-indol-1-ylmethyl-benzyloxycarbonylamino)-3-phenyl-propionic acid] is 122 to 125 °C; for `O=C(N[C@H](Cc1ccc(F)cc1)C(=O)O)OCc1cc2cc(-c3ccccc3F)ccc2o1` [Compound 114, (R)-3-(4-fluoro-phenyl)-2-[5-(2-fluoro-phenyl)-benzofuran-2-ylmethoxycarbonylamino]-propionic acid] it is 105.2 to 110.2 °C; for `O=C(N[C@H](Cc1ccccc1)C(=O)O)OCC1Cc2cc(-c3ccccc3)ccc2O1` (stereo partly drawn) (as salt: salt) [Compound 68, (R)-3-Phenyl-2-(5-phenyl-2,3-dihydro-benzofuran-2-ylmethoxycarbonylamino)-propionic acid] it is 176.3 to 182 °C. `O=C(N[C@H](Cc1ccccc1)C(=O)O)OCc1ccc2oc(-c3cccc4[nH]ccc34)nc2c1` [Compound 161, (R)-2-[2-(1H-indol-4-yl)-benzoxazol-5-ylmethoxycarbonylamino]-3-phenyl-propionic acid] had a melting point of 187 to 189 °C.

In turn, `O=C(N[C@H](Cc1ccccc1)C(=O)O)OCc1ccc2oc(-c3ccccc3)cc2c1` [Compound 29, (R)-3-Phenyl-2-(2-phenyl-benzofuran-5-ylmethoxycarbonylamino)-propionic acid] showed a melting point of 172.8 to 173.5 °C. Next, `Cc1ccc(-c2ccc3oc(COC(=O)N[C@H](Cc4ccccc4)C(=O)O)cc3c2)cc1` (hydrate or solvate) [Compound 95, (R)-2-[5-(4-methyl-phenyl)-benzofuran-2-ylmethoxycarbonylamino]-3-phenyl-propionic acid]: 151 to 154 °C. The figure for `COc1cccc(OCc2ccc(COC(=O)NC(Cc3ccccc3)C(=O)O)cc2)c1` (stereo not drawn) (hydrate or solvate) [Compound 154, 2-[4-(3-methoxy-phenoxymethyl)-benzyloxycarbonylamino]-3-phenyl-propionic acid] is 62.5 to 64.8 °C; for `Cn1cc(C[C@@H](NC(=O)OCc2ccc(COc3ccccc3)cc2)C(=O)O)c2ccccc21` [Compound 170, (R)-3-(1-methyl-1H-indol-3-yl)-2-(4-phenoxymethyl-benzyloxycarbonylamino)-propionic acid] it is 79.9 to 82.6 °C. Next, `O=C(Cc1ccc(OCc2ccccc2)cc1)NC(Cc1ccccc1)C(=O)O` (stereo not drawn) [Compound 84, 2-(4-benzyloxybenzylcarbonylamino)-3-phenyl-propionic acid]: 118.3 to 119.9 °C; `O=C(N[C@H](Cc1nc2ccccc2[nH]1)C(=O)O)OCc1ccc(-c2ccccc2)cc1` [Compound 150, (R)-3-(1H-benzoimidazol-2-yl)-2-(biphenyl-4-ylmethoxycarbonylamino)-propionic acid]: 243 to 245 °C. `Cc1ccc(-c2cc(COC(=O)NC(Cc3ccccc3)C(=O)O)co2)cc1` (stereo not drawn) [Compound 127, 3-phenyl-2-(5-p-tolyl-furan-3-ylmethoxycarbonylamino)-propionic acid] returned a melting point of 67.7 to 68.2 °C. The figure for `O=C(N[C@H](Cc1ccccc1)C(=O)O)OCc1cc2cc(-c3ccc(F)c(F)c3)ccc2o1` [Compound 104, (R)-2-[5-(3,4-Difluoro-phenyl)-benzofuran-2-ylmethoxycarbonylamino]-3-phenyl-propionic acid] is 98.9 to 101.7 °C; for `O=C(NC(Cc1cnccn1)C(=O)O)OCc1cc2cc(-c3ccccc3)ccc2o1` (stereo not drawn) [Compound 165, 2-(5-phenyl-benzofuran-2-ylmethoxycarbonylamino)-3-pyrazin-2-yl-propionic acid] it is 144.9 to 146 °C. In the case of `O=C(NC(Cc1ccncc1)C(=O)O)OCc1cc2cc(-c3ccc(F)cc3)ccc2o1` (stereo not drawn) [Compound 176, 2-[5-(4-fluoro-phenyl)-benzofuran-2-ylmethoxycarbonylamino]-3-pyridin-4-yl-propionic acid], the melting point was 255.2 to 255.7 °C. Take `N#Cc1cccc(-c2ccc3oc(COC(=O)N[C@H](Cc4ccc(F)cc4)C(=O)O)cc3c2)c1` (hydrate or solvate) [Compound 112, (R)-2-[5-(3-cyano-phenyl)-benzofuran-2-ylmethoxycarbonylamino]-3-(4-fluoro-phenyl)-propionic acid]: the melting point was 84 to 87.5 °C. Turning to `O=C(N[C@H](Cc1ccccc1)C(=O)O)OCc1cc2cc(-c3ccccc3F)ccc2o1` (hydrate or solvate) [Compound 98, (R)-2-[5-(2-fluoro-phenyl)-benzofuran-2-ylmethoxycarbonylamino]-3-phenyl-propionic acid], the melting point was 97.1 to 100.8 °C. Next, `O=C(NC(Cc1ccc(F)cc1)C(=O)O)OCc1cc2cc(-c3cc(Cl)cc(Cl)c3)ccc2o1` (stereo not drawn) [Compound 177, 2-[5-(3,5-dichloro-phenyl)-benzofuran-2-ylmethoxycarbonylamino]-3-(4-fluoro-phenyl)-propionic acid]: 101.1 to 103.2 °C; `O=C(N[C@H](Cc1ccc(F)cc1)C(=O)O)OCc1cc2cc(-c3ccc(F)c(F)c3)ccc2o1` [Compound 122, (R)-2-[5-(3,4-difluoro-phenyl)-benzofuran-2-ylmethoxycarbonylamino]-3-(4-fluoro-phenyl)-propionic acid]: 97 to 99.1 °C.
